Patent US7217722B2 (Kirin Beer Kabushiki Kaisha, priority 2000, dated 2007)
Where a name gives a salt, the structure may show the parent alone.

target: Rho kinase (fused protein of bovine Rho kinase catalyst region and glutathione S-transferase) (Bos taurus, UniProt Q28021); experiment: Rho kinase inhibitory activity (phosphorylation of S6 231–239 substrate, γ32P-ATP); type: biochemical; conditions: concentration inhibiting substrate phosphorylation by 50%
Procedure: This permits the substrate to be labeled with the radioisotope.
Thereafter, the substrate was adsorbed to a filter paper. ATP was washed away with a phosphoric acid solution, and the amount of the phosphorylated substrate was then measured with a liquid scintillation counter.

Chain of Rho kinase (fused protein of bovine Rho kinase catalyst region and glutathione S-transferase) (Q28021 92-354 limits assumed): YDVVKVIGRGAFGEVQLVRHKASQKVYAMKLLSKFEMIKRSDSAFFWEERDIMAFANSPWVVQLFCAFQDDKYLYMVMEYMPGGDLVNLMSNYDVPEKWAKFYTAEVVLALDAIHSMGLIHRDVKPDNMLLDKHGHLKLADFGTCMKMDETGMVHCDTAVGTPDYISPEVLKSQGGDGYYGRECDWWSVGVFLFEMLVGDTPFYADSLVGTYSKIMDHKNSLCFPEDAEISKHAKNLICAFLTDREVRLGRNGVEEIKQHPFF

Structure (SMILES) | IC50 [nM]
Clc1cc2c(cc1CN1CCC(Nc3ccc4[nH]ncc4c3)CC1)OCO2 [Example 144, N-{1-[(6-Chloro-1,3-benzodioxol-5-yl)methyl]-4-piperidyl}-N-(1H-5-indazolyl)amine] | 453
COc1cc(CN2CCC(Nc3ccc4[nH]ncc4c3)C2)cc(OC)c1 (stereo not shown) [Example 160, N-[1-(3,5-Dimethoxybenzyl)tetrahydro-1H-3-pyrrolyl]-N-(1H-5-indazolyl)amine] | 1
Clc1ccccc1CN1CCCC(Nc2ccc3[nH]ncc3c2)C1 (stereo not shown) [Example 161, N-[1-(2-Chlorobenzyl)-3-piperidyl]-N-(1H-5-indazolyl)amine] | 13
COc1cc(CN2CCCC(Nc3ccc4[nH]ncc4c3)C2)cc(OC)c1 (stereo not shown) [Example 170, N-[1-(3,5-Dimethoxybenzyl)-3-piperidyl]-N-(1H-5-indazolyl)amine] | 80
c1ccc(NC2CCC(Nc3ccc4[nH]ncc4c3)CC2)cc1 (stereo not shown) [Example 172, N1-(1H-5-Indazolyl)-N4-phenyl-1,4-cyclohexanediamine] | 265
O=C(CNCc1ccccc1)Nc1ccc2[nH]ncc2c1 [Example 173, N1-(1H-5-Indazolyl)-2-(benzylamino)acetamide] | 446
c1ccc(CNCCNc2ccc3[nH]ncc3c2)cc1 [Example 174, N1-Benzyl-N2-(1H-5-indazolyl)-1,2-ethanediamine] | 163
CC(=O)n1ncc2cc(NC3CCN(Cc4ccccc4)CC3)ccc21 [Example 176, 1-{5-[(1-Benzyl-4-piperidyl)amino]-1H-5-indazolyl}-1-ethanone] | 4

Further lines, results first:

IC50 [nM] | Structure (SMILES)
250 | Cc1ccc(CN2CCC(Nc3ccc4[nH]ncc4c3)CC2)cc1 [Example 139, N-(1H-5-Indazolyl)-N-[1-(4-methylbenzyl)-4-piperidyl]amine]
465 | O=[N+]([O-])c1cccc(CN2CCC(Nc3ccc4[nH]ncc4c3)CC2)c1 [Example 140, N-(1H-5-Indazolyl)-N-[1-(3-nitrobenzyl)-4-piperidyl]amine]
661 | O=[N+]([O-])c1ccc(CN2CCC(Nc3ccc4[nH]ncc4c3)CC2)cc1 [Example 141, N-(1H-5-Indazolyl)-N-[1-(4-nitrobenzyl)-4-piperidyl]amine]
655 | c1ccc(COc2ccc(CN3CCC(Nc4ccc5[nH]ncc5c4)CC3)cc2)cc1 [Example 142, N-{1-[4-(Benzyloxy)benzyl]-4-piperidyl}-N-(1H-5-indazolyl)amine]
399 | COc1cc(CN2CCC(Nc3ccc4[nH]ncc4c3)CC2)cc(OC)c1 [Example 143, N-[1-(3,5-Dimethoxybenzyl)-4-piperidyl]-N-(1H-5-indazolyl)amine]
290 | Oc1ccc(CN2CCC(Nc3ccc4[nH]ncc4c3)CC2)cc1 [Example 145, 4-{[4-(1H-5-Indazolylamino)piperidino]methyl}phenol]
462 | COC(=O)c1cccc(CN2CCC(Nc3ccc4[nH]ncc4c3)CC2)c1 [Example 147, Methyl 3-{[4-(1H-5-indazolylamino)piperidino]methyl}benzoate]
166 | COC(=O)c1ccc(CN2CCC(Nc3ccc4[nH]ncc4c3)CC2)cc1 [Example 148, Methyl 4-{[4-(1H-5-indazolylamino)piperidino]methyl}benzoate]
204 | CC(=O)Oc1ccc(CN2CCC(Nc3ccc4[nH]ncc4c3)CC2)cc1 [Example 149, 4-{[4-(1H-5-Indazolylamino)piperidino]methyl}phenyl acetate]
821 | Fc1cccc(Cl)c1CN1CCC(Nc2ccc3[nH]ncc3c2)CC1 [Example 150, N-[1-(2-Chloro-6-fluorobenzyl)-4-piperidyl]-N-(1H-5-indazolyl)amine]
45 | Clc1ccccc1CN1CCC(Nc2ccc3[nH]ncc3c2)C1 (stereo not shown) [Example 151, N-[1-(2-Chlorobenzyl)tetrahydro-1H-3-pyrrolyl]-N-(1H-5-indazolyl)amine]
84 | Fc1ccc(CN2CCC(Nc3ccc4[nH]ncc4c3)C2)cc1 (stereo not shown) [Example 154, N-[1-(4-Fluorobenzyl)tetrahydro-1H-3-pyrrolyl]-N-(1H-5-indazolyl)amine]
24 | Brc1ccc(CN2CCC(Nc3ccc4[nH]ncc4c3)C2)cc1 (stereo not shown) [Example 155, N-[1-(4-Bromobenzyl)tetrahydro-1H-3-pyrrolyl]-N-(1H-5-indazolyl)amine]
2 | COc1ccc(CN2CCC(Nc3ccc4[nH]ncc4c3)C2)cc1 (stereo not shown) [Example 156, N-(1H-5-Indazolyl)-N-[1-(4-methoxybenzyl)tetrahydro-1H-3-pyrrolyl]amine]
22 | Cc1ccc(CN2CCC(Nc3ccc4[nH]ncc4c3)C2)cc1 (stereo not shown) [Example 157, N-(1H-5-Indazolyl)-N-[1-(4-methylbenzyl)tetrahydro-1H-3-pyrrolyl]amine]
5 | O=[N+]([O-])c1cccc(CN2CCC(Nc3ccc4[nH]ncc4c3)C2)c1 (stereo not shown) [Example 158, N-(1H-5-Indazolyl)-N-[1-(3-nitrobenzyl)tetrahydro-1H-3-pyrrolyl]amine]
12 | O=[N+]([O-])c1ccc(CN2CCC(Nc3ccc4[nH]ncc4c3)C2)cc1 (stereo not shown) [Example 159, N-(1H-5-Indazolyl)-N-[1-(4-nitrobenzyl)tetrahydro-1H-3-pyrrolyl]amine]
19 | Clc1cccc(CN2CCCC(Nc3ccc4[nH]ncc4c3)C2)c1 (stereo not shown) [Example 162, N-[1-(3-Chlorobenzyl)-3-piperidyl]-N-(1H-5-indazolyl)amine]
11 | Clc1ccc(CN2CCCC(Nc3ccc4[nH]ncc4c3)C2)cc1 (stereo not shown) [Example 163, N-[1-(4-Chlorobenzyl)-3-piperidyl]-N-(1H-5-indazolyl)amine]
11 | Brc1ccc(CN2CCCC(Nc3ccc4[nH]ncc4c3)C2)cc1 (stereo not shown) [Example 165, N-[1-(4-Bromobenzyl)-3-piperidyl]-N-(1H-5-indazolyl)amine]
16 | COc1ccc(CN2CCCC(Nc3ccc4[nH]ncc4c3)C2)cc1 (stereo not shown) [Example 166, N-(1H-5-Indazolyl)-N-[1-(4-methoxybenzyl)-3-piperidyl]amine]
9 | Cc1ccc(CN2CCCC(Nc3ccc4[nH]ncc4c3)C2)cc1 (stereo not shown) [Example 167, N-(1H-5-Indazolyl)-N-[1-(4-methylbenzyl)-3-piperidyl]amine]
87 | O=[N+]([O-])c1ccc(CN2CCCC(Nc3ccc4[nH]ncc4c3)C2)cc1 (stereo not shown) [Example 169, N-(1H-5-Indazolyl)-N-[1-(4-nitrobenzyl)-3-piperidyl]amine]

tested on: Human-derived histiocyte lymphoma (U937/CCR2); experiment: Leukocyte migration inhibitory activity (MCP-1 induced migration, CHEMOTAXICELL); type: cell-based; conditions: Homo sapiens, U-937, 1 h, test compound 0.03 μM; U937/CCR2, MCP-1, 1 hr; read-out: Migration inhibition (%) ± SEM
Procedure: Human-derived histiocyte lymphoma (U937/CCR2), in which mouse-derived CCR2 had been highly expressed, was suspended in a 0.1% BSA-containing RPMI 1640 medium, to which a test compound had been added (5×10^6/ml), and the suspension was incubated for 20 min. A chemical solution (500 μl) (0.1% BSA-containing RPMI 1640 medium DMSO 1%), to which an MCP-1 ligand (1 μM) and the test compound had been added, was added to a 24-well plate. CHEMOTAXICELL was put thereon, and 200 μl of the cell suspension was added to the top layer, followed by migration under 5% carbon dioxide at 37° C. for one hr. The number of cells, which had migrated to the lower chamber, was counted with a particle count analyzer (CDA-500, SYSMEX CORPORATION), and the percentage migration inhibition was calculated by the following equation; Migration inhibition (%)={1−(number of migrated cells in the presence of test compound/number of migrated cells in the absence of test compound)}×100

Structure (SMILES) | inhibition at 0.03 µM [%]
COC(=O)C(c1ccccc1)N1CCCC(Nc2ccc3[nH]ncc3c2)C1 (stereo not shown) [Example 221, methyl 2-[3-(1H-5-indazolylamino)piperidino]-2-phenylacetate] | 27.5 ± 33.6

same assay, conditions: Homo sapiens, U-937, 1 h, test compound 0.3 μM; U937/CCR2, MCP-1, 1 hr; read-out: Migration inhibition (%) ± SEM

Structure (SMILES) | inhibition at 0.3 µM [%]
c1cc(NC2CCC(NC3CC3)CC2)c2ccncc2c1 (stereo not drawn) [262 (anti), N1-Cyclopropyl-N4-(5-isoquinolyl)-1,4-cyclohexanediamine] | 24.4 ± 8.1
COC(=O)C(c1ccccc1)N1CCCC(Nc2ccc3[nH]ncc3c2)C1 (stereo not shown) [Example 221, methyl 2-[3-(1H-5-indazolylamino)piperidino]-2-phenylacetate] | 90.8 ± 11

same assay, conditions: Homo sapiens, U-937, 1 h, test compound 1 μM; U937/CCR2, MCP-1, 1 hr; read-out: Migration inhibition (%) ± SEM

Structure (SMILES) | inhibition at 1 µM [%]
CCCN[C@H]1CC[C@H](Nc2cccc3cnccc23)CC1 [260 (anti)] | 77.4 ± 14.4
c1cc(NC2CCC(NC3CC3)CC2)c2ccncc2c1 (stereo not drawn) [262 (anti), N1-Cyclopropyl-N4-(5-isoquinolyl)-1,4-cyclohexanediamine] | 82.5 ± 6.69

same assay, conditions: Homo sapiens, U-937, 1 h, test compound 3 μM; U937/CCR2, MCP-1, 1 hr; read-out: Migration inhibition (%) ± SEM

Structure (SMILES) | inhibition at 3 µM [%]
c1ccc(CCN[C@H]2CC[C@@H](Nc3ccc4[nH]ncc4c3)CC2)cc1 [259 (syn), N1-(1H-5-Indazolyl)-N4-phenylethyl-1,4-cyclohexanediamine] | 85.3 ± 8.5
Brc1ccc(CN2CCC(Nc3ccc4[nH]ncc4c3)CC2)cc1 [Example 22] | 34.8 ± 12.4
CCCNC1CCC(Nc2ccc3[nH]ncc3c2)CC1 (stereo not shown) [Example 243, N1-(1H-5-indazolyl)-N4-propyl-1,4-cyclohexanediamine] | 82.8 ± 7.1
CCCC(C)CN1CCCC(Nc2ccc3[nH]ncc3c2)C1 (stereo not shown) [Example 281, N-(1H-5-indazolyl)-N-[1-(2-methylpentyl)-3-piperidyl]amine] | 100 ± 8.2

same assay, conditions: Homo sapiens, U-937, 1 h, test compound 30 μM; U937/CCR2, MCP-1, 1 hr; read-out: Migration inhibition (%) ± SEM

Structure (SMILES) | inhibition at 30 µM [%]
Brc1ccc(CN2CCC(Nc3ccc4[nH]ncc4c3)CC2)cc1 [Example 22] | 92.9 ± 1.3

same assay, conditions: test compound 1 μM; U937/CCR2, MCP-1, 1 hr; 1 µM

Structure (SMILES) | Migration inhibition (%) ± SEM [%]
c1cc(NC2CCC(NC3CC3)CC2)c2ccncc2c1 (stereo not drawn) [262 (syn), N1-Cyclopropyl-N4-(5-isoquinolyl)-1,4-cyclohexanediamine] | 69.9 ± 15.1

same assay, conditions: test compound 3 μM; U937/CCR2, MCP-1, 1 hr

Structure (SMILES) | Migration inhibition (%) ± SEM [%]
Cl.c1ccc(CN2CCCC(Nc3ccc4[nH]ncc4c3)C2)cc1 (stereo not shown) [Example 21.HCl, N-(1-Benzyl-3-piperidyl)-N(1H-5-indazolyl)amine] | 83.5 ± 3.3

same assay, conditions: test compound 3 μM; U937/CCR2, MCP-1, 1 hr; 3 µM

Structure (SMILES) | Migration inhibition (%) ± SEM [%]
c1ccc(CN2CCC(Nc3ccc4[nH]ncc4c3)C2)cc1 (stereo not shown) [Example 146.HCl, N-(1-Benzyltetrahydro-1H-pyrrolyl)-N-(1H-5-indazolyl)amine] | 74.5 ± 1.7

same assay, conditions: test compound 30 μM; U937/CCR2, MCP-1, 1 hr

Structure (SMILES) | Migration inhibition (%) ± SEM [%]
Cl.c1ccc(CN2CCCC(Nc3ccc4[nH]ncc4c3)C2)cc1 (stereo not shown) [Example 21.HCl, N-(1-Benzyl-3-piperidyl)-N(1H-5-indazolyl)amine] | 99.1 ± 0.4

same assay, conditions: test compound 30 μM; U937/CCR2, MCP-1, 1 hr; 30 µM

Structure (SMILES) | Migration inhibition (%) ± SEM [%]
c1ccc(CN2CCC(Nc3ccc4[nH]ncc4c3)C2)cc1 (stereo not shown) [Example 146.HCl, N-(1-Benzyltetrahydro-1H-pyrrolyl)-N-(1H-5-indazolyl)amine] | 97.9 ± 1.0
